Assay results from patent publication US20120122923A1, “DUAL MOLECULES CONTAINING A PEROXIDE DERIVATIVE, THEIR SYNTHESIS AND THERAPEUTIC USES” (SANOFI-AVENTIS, priority 2006, published 2012).
Like-named read-outs stand apart in the source and are kept apart here.

Experiments:
[1] = test system: P. falciparum FcB1-Columbia strain; assay: Chemosensitivity test (radioactive micromethod, tritiated hypoxanthine incorporation), FcB1-Columbia strain; format: cell-based; settings: Plasmodium falciparum, read-out: IC50 (concentration required to inhibit parasite growth by 50%)
Procedure: (§1) Strains of P. falciparum were cultivated continuously using Trager and Jensen's method (Science, 1976, 193, 673-675): the parasites were maintained in human red blood corpuscles (O±), diluted to a blood parasite level of 2% in RPMI 1640 medium supplemented with 25 mM Hepes+24 mM NaHCO3+2 mM L-glutamine and complemented with 5% human serum from all groups.
(§2) The parasites were incubated at 37° C., in a moist atmosphere and 5% CO2.
The antimalarial activity tests were carried out using the radioactive micromethod of Desjardins et al. (Antimicrob. Agents Chemother., 1979, 16, 710-718). Each molecule was tested in triplicate. The tests were carried out in 96 well microplates. The P. falciparum strains were cultured in RPMI 1640 solutions complemented with 5% human serum with haematocrit at 2% and a blood parasite level of 1.5%. For each test, the parasites were incubated with decreasing concentrations of test compounds for 48 h at 37° C., in a moist atmosphere and 5% CO2. The artemisinin and chloroquine diphosphate were used as reference molecules. The first dilution of the test compounds was carried out at 1 mg/ml in dimethylsulphoxide. […] Parasite growth was measured by the incorporation of tritiated hypoxanthine (added 24 h after beginning exposure to the test compound) and compared with the incorporation in the absence of the test compound (taken as 100%). […]

[2] = test system: P. falciparum FcM29-Cameroon strain; assay: Chemosensitivity test (radioactive micromethod, tritiated hypoxanthine incorporation), FcM29-Cameroon strain; format: cell-based; settings: Plasmodium falciparum, 48 h, read-out: IC50 (concentration required to inhibit parasite growth by 50%)
Procedure: as §1, §2
The antimalarial activity tests were carried out using the radioactive micromethod of Desjardins et al. (Antimicrob. Agents Chemother., 1979, 16, 710-718). Each molecule was tested in triplicate. The tests were carried out in 96 well microplates. The P. falciparum strains were cultured in RPMI 1640 solutions complemented with 5% human serum with haematocrit at 2% and a blood parasite level of 1.5%. For each test, the parasites were incubated with decreasing concentrations of test compounds for 48 h at 37° C., in a moist atmosphere and 5% CO2. The artemisinin and chloroquine diphosphate were used as reference molecules. The first dilution of the test compounds was carried out at 1 mg/ml in dimethylsulphoxide. The dilution series for the successive daughter solutions was also prepared in dimethylsulphoxide. Each daughter dilution was then diluted to 1/50th in RPMI 1640 complemented with 5% human serum, all of the dilutions being made at 37° C. Said dilutions were then added to the parasites in culture in the microplates. After adding the test compound, the parasites were cultured in RPMI 1640 with 5% human serum and 1% dimethylsulphoxide. Parasite growth was measured by the incorporation of tritiated hypoxanthine (added 24 h after beginning exposure to the test compound) and compared with the incorporation in the absence of the test compound (taken as 100%). The values for IC50 (concentrations required to inhibit parasite growth by 50%) were determined by plotting the percentage inhibition as a function of the logarithm of the dose using GraphPad Prism 4® processing software (GraphPad software, Inc., 5755 Oberlin Drive, #110, San Diego, Calif. 92121, USA).

[3] = Metabolic stability on human hepatic microsomes; format: in vitro ADME; settings: for Percentage metabolization: human hepatic microsomes 1 mg/ml, 5 μM substrate, 1 mM NADPH, 20 minutes at 37° C., degradation with respect to T0
Procedure: These experiments were carried out on human hepatic microsomes in the presence of NADPH cofactor, necessary for the activity of the principal enzymes, namely cytochromes P-450 (CYP) and flavine mono-oxygenases (FMO). […] After 20 minutes, the reaction was stopped by adding 1 volume of acetonitrile. The supernatant was then removed after centrifuging (speed 3000 g for 10 minutes at 4° C.). The supernatant was analysed by high performance liquid chromatography coupled to a mass spectrometer (LC-MS/MS) and the degradation of each of the test compounds was calculated as a percentage (%) with respect to T0. The microsomal fractions were prepared from human hepatic tissue deriving from at least 12 different donors and frozen at −80° C. The tissue was defrosted then dried, weighed and cut into thin sheets before homogenizing. The tissue was homogenized using a Potter-Elvejheim type homogenizer at +4° C. The tissue homogenates were then centrifuged at 10000 g for 30 minutes at +4° C. […] The residue was finally taken up into suspension in a final volume of KH2PO4/K2HPO4 buffer containing 20% (v/v) of glycerol (1 ml for 2 grams of tissue). The hepatic microsomal fractions obtained were divided into aliquots (500 μl), frozen rapidly in liquid nitrogen and kept frozen at −80° C. until use. concentration of microsomal proteins: 1 mg/ml; concentration of BSA (bovine serum albumin (BSA): 1 mg/ml; concentration of substrate (test compound): 5 μM; CYP and FMO co-factors: 1 mM NADPH; Phosphate buffer (pH 7.4): 10 mM. • The reaction was initiated by adding 1 mM of NADPH and incubating for 20 minutes at 37° C., with stirring. The reaction was stopped by adding 1 volume of cold acetonitrile. • Total incubation volume=300 μl

[4] = FcM29-Cameroon strain (very strongly chloroquine-resistant), in human red blood corpuscles
[5] = human hepatic microsomes, from Table 2

melting point | Percentage metabolization [3] | Structure (SMILES) | other results
166 °C (dec.) |  | CC1OOC2(CCC(NC3CCC(Nc4ccnc5cc(Cl)ccc45)CC3)CC2)OC1C (stereo not drawn) [PA1255, N-(7-chloro-quinolin-4-yl)-N′-(3,4-dimethyl-1,2,5-trioxa-spiro[5.5]undec-9-yl)-cyclohexane-trans-1,4-diamine] | 
166.5 °C (dec.) |  | CC1(C)COC2(CCC(NC3CCC(Nc4ccnc5cc(C(F)(F)F)ccc45)CC3)CC2)OO1 (stereo not drawn) [PA1252, N-(3,3-dimethyl-1,2,5-trioxa-spiro[5.5]undec-9-yl)-N′-(7-trifluoromethyl-quinolin-4-yl)-cyclohexane-trans-1,4-diamine] | 
 | 98% | Clc1ccc2c(NCCN3CCC4(CC3)OCC3(CCCCC3)OO4)ccnc2c1 [PA1110, reference compound] | 
193 °C (dec.) |  | CN(C)c1ccc2nccc(NC3CCC(NC4CCC5(CC4)OCC(C)(C)OO5)CC3)c2c1 (stereo not drawn) [PA1253, N-(3,3-dimethyl-1,2,5-trioxa-spiro[5.5]undec-9-yl)-N′-(6-dimethylamino-quinolin-4-yl)-cyclohexane-trans-1,4-diamine] | 
168 °C (dec.) |  | CC1(C)COC2(CCC(NC3CCC(Nc4cc(C(F)(F)F)nc5c(C(F)(F)F)cccc45)CC3)CC2)OO1 (stereo not drawn) [PA1251, N-(2,8-bis-trifluoromethyl-quinolin-4-yl)-N′-(3,3-dimethyl-1,2,5-trioxa-spiro[5.5]undec-9-yl)-cyclohexane-trans-1,4-diamine] | 
176 °C (dec.) | 11% | CC1(C)COC2(CCC(NC3CCC(Nc4ccnc5cc(Cl)ccc45)CC3)CC2)OO1 (stereo not drawn) [PA1103, N-(7-chloro-quinolin-4-yl)-N′-(3,3-dimethyl-1,2,5-trioxa-spiro[5.5]undec-9-yl)-cyclohexane-trans-1,4-diamine] | times less degraded than chloroquine [3, 5]: about 3 times; times less degraded than the prior art compounds [3, 5]: about 10 times; stability in human hepatic microsomes compared with the other test compounds ([3]; in words): much more stable; IC50 [2, 4]: 6 nM
165 °C (dec.) |  | CC1(C)COC2(CCC(NC3CCC(Nc4ccnc5ccc(OC(F)(F)F)cc45)CC3)CC2)OO1 (stereo not drawn) [PA1305, N-(6-trifluoromethoxy-quinolin-4-yl)-N′-(3,3-dimethyl-1,2,5-trioxa-spiro[5.5]undec-9-yl)-cyclohexane-trans-1,4-diamine] | 

More lines, now with the values behind:

Structure (SMILES) | melting point | Percentage metabolization [3] | other results
C[C@@H]1CC[C@H]2[C@@H](C)C(=O)O[C@@H]3O[C@@]4(C)CC[C@@H]1[C@]32OO4 [artemisinin, reference compound] |  |  | IC50 ([1]; FcB1-Columbia strain (moderately chloroquine-resistant), in human red blood corpuscles, 48 h): 11 nM; IC50 [2, 4]: 5 nM
CCN(CC)CCCC(C)Nc1ccnc2cc(Cl)ccc12 (centres unmarked) [chloroquine, reference compound] |  | 29% | IC50 ([1]; FCB1, 48 h): 66 nM; IC50 [2]: 258 nM
CC1(C)COC2(CCC(N[C@@H]3CCCC[C@H]3Nc3ccnc4cc(Cl)ccc34)CC2)OO1 (stereo partly drawn) [PA1188, N-(7-chloro-quinolin-4-yl)-N′-(3,3-dimethyl-1,2,5-trioxa-spiro[5.5]undec-9-yl)-cyclohexane-trans-1,2-diamine] |  |  | IC50 [2, 4]: 4 nM
C[C@H]1[C@H](OC(=O)CCC(=O)O)O[C@@H]2O[C@@]3(C)CC[C@H]4[C@H](C)CC[C@@H]1[C@@]24OO3 [artesunate, reference compound] |  | 100% | 
CC(C)C1=C[C@H]2OC3(CCC(NCCNc4ccnc5cc(Cl)ccc45)CC3)OO[C@H]2CC1 (some centres unmarked) [DU1302, reference compound] |  | 95-100% | 
